The values below are quoted from earlier work in patent publication US20210095260A1, “BI- OR MULTI-DIFFERENTIATED ORGANOID” (IMBA - INSTITUT FÜR MOLEKULARE BIOTECHNOLOGIE GMBH, priority 2017, published 2021).

The subject of this series is hPSCs. The following applies: inhibition of SHH activity; cited from earlier work.

For the molecule `CC1=C2C[C@H]3[C@@H](CC=C4C[C@@H](O)CC[C@@]43C)[C@@H]2CC[C@]12O[C@@H]1C[C@H](C)CN[C@H]1[C@H]2C` [CycA, cyclopamine A], the dorsal forebrain identity result is listed as “can enhance dorsal forebrain identity”.
